Where two headings read alike, the source gives them in different places. Non-standard residues stand in square brackets, D forms with d. Residues, ends and D or L forms follow the SMILES beside them. *: point of attachment. 2Nal = N[C@@H](Cc1ccc2ccccc2c1)C(=O)O; Met(O2) = CS(=O)(=O)CC[C@H](N)C(=O)O; Palmitoyl = CCCCCCCCCCCCCCCC(=O)*; Nva = CCC[C@H](N)C(=O)O
Experiments:
[1] = cited from earlier work
[2] = target: T1, CLR/RAMP1 receptor (Homo sapiens, UniProt O60894+Q16602); experiment: HitHunter cAMP XS+ CALCRL-RAMP1 cAMP assay, antagonist mode; type: cell-based; settings: for IC50: CHO-K1 CALCRL-RAMP1 cAMP Hunter cells, human β-CGRP at EC80 (0.37nM), 30 min pre-incubation, 10-point curve from 10 μM, 3-fold dilutions, duplicate samples, assayed side-by-side once, read-out: IC50 for antagonizing CGRP-induced CLR/RAMP1 signaling; for Maximum response: antagonist mode, β-CGRP at EC80, 10-point curve, duplicate; for Antagonistic activity toward CGRP-mediated CLR/RAMP1 signaling compared to ADE651: result in words
T1 construct: host or cells: CHO-K1 (cAMP Hunter cell line)
T1 sequence (Q16602 23-461): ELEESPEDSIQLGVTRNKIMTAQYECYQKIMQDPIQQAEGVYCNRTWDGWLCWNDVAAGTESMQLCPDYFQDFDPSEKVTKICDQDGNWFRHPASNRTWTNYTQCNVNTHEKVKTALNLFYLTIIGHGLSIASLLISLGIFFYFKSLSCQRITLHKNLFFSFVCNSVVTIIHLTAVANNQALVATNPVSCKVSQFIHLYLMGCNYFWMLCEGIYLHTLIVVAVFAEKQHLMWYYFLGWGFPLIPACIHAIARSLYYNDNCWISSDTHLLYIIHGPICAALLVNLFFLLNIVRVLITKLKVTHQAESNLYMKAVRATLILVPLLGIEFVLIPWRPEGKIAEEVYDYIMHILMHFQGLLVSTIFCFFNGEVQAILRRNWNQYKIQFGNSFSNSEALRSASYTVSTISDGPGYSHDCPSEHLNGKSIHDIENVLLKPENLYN
T1 sequence (O60894 27-148): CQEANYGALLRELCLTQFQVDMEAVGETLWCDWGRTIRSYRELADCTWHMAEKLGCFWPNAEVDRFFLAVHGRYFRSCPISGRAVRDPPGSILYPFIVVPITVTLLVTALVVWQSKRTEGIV
Method: The assay of the antagonistic activity of analogs was conducted by the Eurofins Discoverx using the HitHunter cAMP XS + assay as described earlier ([Bradley and McLoughlin, 2009]; [Chang and Hsu, 2019]). The dose-dependent inhibitory effect of antagonists was studied in duplicate, at 10 different concentrations. Determination of the half-maximal inhibitory concentration (IC50) was performed using a 10-point dose-response curve. The starting concentration was 10 μM, and it was serially diluted 3-fold, in DMSO. […] Using the Hit Hunter® assay (CALCRL-RAMP1 cAMP assay in the antagonist mode; https://www.discoverx.com/products/cell-line/cho-k1-calcrl-ramp1-gs-cell-line-95-0164c2), the eight compounds in Table 1 were assayed side-by-side once, and the IC50 was derived based on the standard assay of duplicate samples of a ten-point curve. In this homogenous, non-imaging assay, the activation of CLR/RAMP1 signaling was evaluated using the Enzyme Fragment Complementation (EFC) technology with β-galactosidase (β-Gal) as the functional reporter. The enzyme was split into two complementary portions: an enzyme acceptor and an enzyme donor. The enzyme donor is fused to cAMP and it competes with cAMP generated by cells
For binding to a cAMP-specific antibody. Active β-Gal is formed by complementation of exogenous enzyme acceptor to any unbound enzyme donor-cAMP. The active enzyme then converted a chemiluminescent substrate to generate a signal. Briefly, cAMP Hunter cell lines with the select receptor were expanded from freezer stocks ([Bradley and McLoughlin, 2009]), and cells were seeded in a total volume of 20 μL into 384-well microplates and incubated at 37°C for the appropriate time. […] Intermediate dilution of samples was performed to generate 4X sample in the assay buffer. Before the assay, media was aspirated from cells and replaced with 10 μL 1:1 HBSS/Hepes:cAMP XS + Ab reagent, and 5 μL of 4X compound was added to the cells and incubated for 30 min. […] Vehicle concentration was 1%.
The chemiluminescent signal was read with a PerkinElmer chemiluminescent plate reader. The compound activity was analyzed using a CBIS data analysis suite (ChemInnovation, CA). The percentage inhibition was calculated using the following formula: % Inhibition = 100% x (1 - (mean RLU of test sample - mean RLU of vehicle control)/(mean RLU of EC80 control - mean RLU of vehicle control)). Data were normalized to the maximal and minimal response observed in the presence of EC80 agonist and vehicle.

[3] = Visual (tube-tapping) assay of gel-forming capability and solubility; type: physicochemical; parameters: key to Gel-forming ability: Y: can form a liquid gel; N: lacks the ability to efficiently form a liquid gel; settings: for Gel-forming ability: visual inspection of 11% peptide solutions, tube-tapping, 20 min after mixing
Method: To evaluate the ability of peptides to form gels in situ, we initially determined this tendency qualitatively based on visual examinations of peptide solutions using a tube-tapping method. In addition, we quantitatively determined the viscosity of select peptide solutions using a viscometer (Rheosense Inc; http://www.rheosense.com/products/viscometers) ([Yan and Pochan, 2010]). In the visual assay, aliquots of peptides were dissolved in an aqueous solution (i.e., de-ionized water, saline, or 5% glucose solution). The peptide that dissolved instantly and stayed as a clear solution without obvious macroscopic change in viscosity at 20 min after mixing was considered soluble. If macroscopic particles of peptides remained in the solution at 20 min after mixing, the peptide was considered insoluble.

[4] = test system: migraine; settings: cited from earlier work
Excerpt: Migraine is a common complex neurovascular disorder that is manifested as episodic and predominantly unilateral throbbing headache with hypersensitivity to light, sound, and movement ([Erdener and Dalkara, 2014]; [Schuster and Rapoport, 2016]). According to the World Health Organization, 324 million people worldwide suffer from incapacitating migraine in 2008. In ∼ one-third of patients, migraine headaches are accompanied by an aura involving neurological symptoms such as transient visual, sensory, or motor disturbances ([Goadsby et al., 2002]). In the US, it was reported that 15% of Americans ...

[5] = test system: CGRP-induced vasodilation; experiment: Dermal blood flow and vasodilation in rat hindlimbs, laser Doppler imaging; type: in vivo, Sprague-Dawley rats; settings: rat hindlimb; saline at 0 h; CGRP 1 mg/100 µL s.c. at 4 h; N = 3
Method: Adult Sprague Dawley male rats (body weight 150–200 g) were randomly divided into treatment groups. Animals were individually housed during the experiment. After acclimation, rats were anesthetized and stabilized under 2.5% isoflurane, and were placed on a heating pad. Testing articles were prepared just before the experiment and individually administered subcutaneously into the hindlimbs. Human β-CGRP (LifeTein LLC, Hillsborough, NJ) was dissolved in a saline solution, and the antagonist solution was prepared in a 5% glucose solution. […] In this experiment, the antagonist gel solution was administered at 0 h as a liquid solution shortly after dissolution to prevent issues associated with the formation of semi-solid gel when the peptide is dissolved at high levels. […] The amount of blood flow was determined by laser Doppler imaging as described earlier ([Van der Schueren et al., 2007]; [Benschop et al., 2014]). The laser Doppler scan series of the hindlimbs began with two baseline scans and was followed by two scans each at select time points. Data are reported as percent change from the average baseline scans.

[6] = Passage of peptide molecules through Centricon filters; type: physicochemical; settings: Centricon 30,000 MW cutoff, 15 min centrifugation; specific EIA; N = 3 per group; result in words
Excerpt: To evaluate whether gel-formation reduces the movement of peptide molecules in solution, we used the Centricon® filters (Millipore) to separate samples and the carriers based on their molecular mass. The sample is monomeric peptides, and the carrier is the self-assembled gel. One milligram aliquots of the peptides were first dissolved as 0.1% solution in 5% glucose, 0.1% solution in saline, 5% solution in 5% glucose, 10% solution in 5% glucose, and 20% solution in 5% glucose. Ten minutes later, the 5%, 10%, and 20% solutions were diluted to the 0.1% level. Aliquots of these solutions were sampled and dispensed into separate Centricon columns (30,000 MW cutoff), and the monomeric peptide and gel molecules were separated by centrifugation for 15 min (2000 x g). The level of peptide in the elutes was determined by specific EIAs (Phoenix Pharmaceuticals Inc.).

For exenatide: approved peptide therapeutic, the Volume of distribution ([1]; in vivo) is listed as 28.3 L.
In the case of histrelin, the Volume of distribution ([1]; in vivo) is listed as 58.4 L.
For setmelanotide, the Volume of distribution ([1]; approved peptide therapeutics) is listed as 48.7 L.
With `CCCCCCCCCCCCCCCC(=O)N[C@@H](CCCCN)C(=O)N[C@H](C(=O)N[C@@H](CCC(N)=O)C(=O)N[C@@H](CCCCN)C(=O)N[C@@H](Cc1ccc2ccccc2c1)C(=O)N[C@@H](CO)C(=O)N[C@@H](C)C(=O)N1CCC[C@H]1C(=O)N[C@H](C(=O)N[C@@H](CC(=O)O)C(=O)N1CCC[C@H]1C(=O)N[C@@H](CO)C(=O)N[C@@H](CO)C(=O)N1CCC[C@H]1C(=O)N[C@@H](Cc1c[nH]cn1)C(=O)N[C@@H](CO)C(=O)N[C@@H](Cc1ccc(O)cc1)C(N)=O)C(C)C)C(C)C` [ADE651H] (Palmitoyl-KVQK[2Nal]SAPVDPSSPHSY-NH2) the IC50 [2] was 15.1 nM, the Maximum response [2] was 100.1 % of positive control and the “Antagonistic activity toward CGRP-mediated CLR/RAMP1 signaling compared to ADE651” value [2] was “significantly reduced antagonistic activity”. For the same compound, the Gel-forming ability [3] was “Y”.
For `C[C@@H]1[C@H](c2ccccc2)C[C@H](NC(=O)c2cnc3c(c2)C[C@@]2(C3)C(=O)Nc3ncccc32)C(=O)N1CC(F)(F)F` [ubrogepant], the “Pain freedom at 2 h, share of acute migraine patients” value ([4]; 14.3% in the placebo group, ref Lipton et al., 2019, Switzer et al., 2022) is given as 21.8% and the “Absolute difference in the pain-free rate versus placebo” value ([4]; ref Lipton et al., 2019, Switzer et al., 2022) is given as 6.4–7.5%.
For `CCCCCCCCCCCCCCCC(=O)N[C@@H](CCCCN)C(=O)N[C@H](C(=O)N[C@@H](CCC(N)=O)C(=O)N[C@@H](CCCCN)C(=O)N[C@@H](CCS(C)(=O)=O)C(=O)N[C@@H](CO)C(=O)N[C@@H](C)C(=O)N1CCC[C@H]1C(=O)N[C@H](C(=O)N[C@@H](CC(=O)O)C(=O)N1CCC[C@H]1C(=O)N[C@@H](CO)C(=O)N[C@@H](CO)C(=O)N1CCC[C@H]1C(=O)N[C@@H](Cc1c[nH]cn1)C(=O)N[C@@H](CO)C(=O)N[C@@H](Cc1ccc(O)cc1)C(N)=O)C(C)C)C(C)C` [ADE651J] (Palmitoyl-KVQK[Met(O2)]SAPVDPSSPHSY-NH2), the IC50 [2] was 0.9 nM, the Maximum response [2] was 100.4 % of positive control and the “Antagonistic activity toward CGRP-mediated CLR/RAMP1 signaling compared to ADE651” value [2] was “retained the potent antagonistic activity”. For the same compound, the Gel-forming ability [3] was “Y”.
With `CCCCCCCCCCCCCCCC(=O)N[C@@H](CCCCN)C(=O)N[C@H](C(=O)N[C@@H](CCC(N)=O)C(=O)N[C@@H](CCCCN)C(=O)N[C@@H](CCC)C(=O)N[C@@H](CO)C(=O)N[C@@H](C)C(=O)N1CCC[C@H]1C(=O)N[C@H](C(=O)N[C@@H](CC(=O)O)C(=O)N1CCC[C@H]1C(=O)N[C@@H](CO)C(=O)N[C@@H](CO)C(=O)N1CCC[C@H]1C(=O)N[C@@H](Cc1c[nH]cn1)C(=O)N[C@@H](CO)C(=O)N[C@@H](Cc1ccc(O)cc1)C(N)=O)C(C)C)C(C)C` [ADE651C] (Palmitoyl-KVQK[Nva]SAPVDPSSPHSY-NH2) the IC50 [2] was 1.3 nM, the Maximum response [2] was 101 % of positive control and the “Antagonistic activity toward CGRP-mediated CLR/RAMP1 signaling compared to ADE651” value [2] was “retained the potent antagonistic activity”. The Gel-forming ability [3] was “Y”.
In the case of `CSCC[C@H](NC(=O)CNC(=O)CNC(=O)[C@H](CO)NC(=O)[C@H](CCCNC(=N)N)NC(=O)[C@H](CO)NC(=O)[C@H](CC(C)C)NC(=O)[C@H](CC(C)C)NC(=O)CNC(=O)[C@H](C)NC(=O)[C@H](CC(C)C)NC(=O)[C@H](CCCNC(=N)N)NC(=O)[C@H](Cc1c[nH]cn1)NC(=O)[C@@H](NC(=O)[C@@H](NC(=O)[C@@H]1CSSC[C@H](NC(=O)[C@H](C)N)C(=O)N[C@@H](CC(N)=O)C(=O)N[C@@H]([C@@H](C)O)C(=O)N[C@@H](C)C(=O)N[C@@H]([C@@H](C)O)C(=O)N1)C(C)C)[C@@H](C)O)C(=O)N[C@H](C(=O)N[C@@H](CCCCN)C(=O)N[C@@H](CO)C(=O)N[C@@H](CC(N)=O)C(=O)N[C@@H](Cc1ccccc1)C(=O)N[C@H](C(=O)N1CCC[C@H]1C(=O)N[C@H](C(=O)N[C@@H](CC(N)=O)C(=O)N[C@H](C(=O)NCC(=O)N[C@@H](CO)C(=O)N[C@@H](CCCCN)C(=O)N[C@@H](C)C(=O)N[C@@H](Cc1ccccc1)C(N)=O)C(C)C)[C@@H](C)O)C(C)C)C(C)C` [CGRP, calcitonin gene-related peptide], the “EC80 of agonist in the cAMP assay” value ([2]; agonist, cAMP Hunter CLR/RAMP1 cells) is reported as 0.37 nM, the “Increase in blood flow at the 5 h time point in control animals” value [5] is reported as greater than 25% and the “Peptide level in elutes from 0.1, 5, 10 and 20% solution groups” value [6] is reported as “similar”. For the same compound, the “Solubility in 5% glucose solution” value ([3]; visual) was “soluble from 0.1% to 20%”.
For `CC1(C)O[C@@H]2[C@@H](CO[C@@]3(COS(N)(=O)=O)OC(C)(C)O[C@@H]23)O1` [topiramate], the “Reduction of migraine days” value ([4]; ref Overeem et al., 2021) is given as 1.11 migraine days.
For “abaloparatide: approved peptide therapeutic”, the Volume of distribution ([1]; in vivo) is given as 50.0 L.
In the case of “Pal-KVQ-Lys (Pyr)-LSAPVDPSSPHSY-NH2 [ADE651N, ADE651 variant, second lysine substituted with Lys (Pyr)]”, the Maximum response [2] is reported as 99.9 % of positive control, the “Antagonistic activity toward CGRP-mediated CLR/RAMP1 signaling compared to ADE651” value [2] is reported as “retained the potent antagonistic activity” and the Gel-forming ability [3] is reported as “Y”.
In the case of “VGCRFGTCTVQKLAHLWQLMGPAGRQDSAPVDPSSPHSY-NH2 [ADE410]”, the “Peptide level in elutes from 0.1, 5, 10 and 20% solution groups” value [6] is reported as “similar”, the “Solubility in 5% glucose solution” value ([3]; visual) is reported as “soluble from 0.1% to 20%” and the “Liquid gel formation at 6–20% level” value ([3]; visual, result in words) is reported as “does not form a liquid gel”.
